“Also recorded” adds a separate entry of the source.
How the values were obtained:
[1] = test system: cytoplasmic calcium levels in U251 cells; assay: Cytoplasmic calcium imaging (Fura-2/AM); assay type: cell-based, human; settings: for elevation of cytoplasmic calcium levels: 100 μmol/L of each drug, Fura-2/AM loaded cells
Procedure: (A) U251 cells were treated with DMC or various coxibs and NSAIDs, and changes in intracellular calcium levels were recorded as described in Materials & Methods. […] Arrows indicate timepoint of drug addition. […] Essentially similar results were also obtained with the LN229 cell line.
The cells were loaded by incubating them with […] Fura-2/AM (Invitrogen) for 30 min at room temperature in external solution containing 138 mmol/L NaCl, 5.6 mmol/L KCl, 1.2 mmol/L MgCl2, 2.6 mmol/L CaCl2, 10 mmol/L HEPES, and 4 mmol/L glucose (pH 7.4). After loading, the cells were rinsed and transferred to the imaging setup. The cells were treated with individual drugs for 10 s, whereas fluorescence was elicited with the excitation wavelength alternating between 350 and 380 nm, using a Polychromator V (TILL Photonics GmbH, Grafelfing, Germany) to provide illumination via a Zeiss Axiovert 100 microscope with a Zeiss Fluar 40 oil objective (Carl Zeiss, Jena, Germany). Images were captured using a Cascade 512B CCD camera (Photometrics, Tucson, Ariz.) controlled with MetaFluor software (Molecular Devices, Sunnyvale, Calif.) at 0.5 Hz acquisition frequency. Ratios of the images obtained at 350 and 380 nm excitation were used to show changes in the cytoplasmic calcium concentration, according to the principles developed by Grynkiewicz et al. (31).

U251 glioblastoma cells = assay: MTT assay, U251; assay type: cell-based, human; settings: for IC50: Homo sapiens, U-251, U251, 48 h, MTT, read-out: IC50 (50% inhibition of cell growth)
Procedure: U251 glioblastoma cells were treated with different drugs, and various parameters of cell growth and cell death were comparatively analyzed. As controls, cells remained either non-treated (Co) or were treated with the solvent DMSO alone. (FIG. 8A) Cells were treated with 30 or 50 μM DMC for 48 hours and the effects on cell growth/survival and on cell death were determined by various assays. […] Below the three panels, the expression levels of the ER stress indicators CHOP, GRP78, and caspase 4 at the end of the 48 hour drug treatment is shown, as determined by Western blot analysis with specific antibodies (actin served as a loading control. (FIG. 8B) Cells were treated with various concentrations of different drugs for 48 hours, as indicated, and cell death was measured with the cell death ELISA kit. (FIG. 8C) Cells were treated with DMC or various coxibs and traditional NSAIDs for 48 hours, as indicated, and cell growth and survival was determined with the conventional MTT assay (control, non-treated cells were set at 100%). MTT assays were performed in 96-well plates with the use of 3.0-8.0×10^3 cells per well as described in detail elsewhere (34). In parallel, the expression levels of CHOP and GRP78 protein were determined by Western blot analysis. […]
(§1) 3-(4,5-Dimethylthiazol-2-yl)-2,5-diphenyltetrazolium bromide (MTT) assays were performed in 96-well plates with the use of 3.0×10^3 to 8.0×10^3 cells per well as described in detail elsewhere (19).

[2] = test system: T98G glioblastoma cell line; assay: MTT assay, T98G; assay type: cell-based; settings: Homo sapiens, 48 h, read-out: IC50 (50% inhibition of cell growth)
Procedure: (§2) For comparison purposes to the known anti-multiple myeloma effects of bortezomib, the RPMI/8226 multiple myeloma cell line was included in (A).
as §1

[3] = test system: LN229 glioblastoma cell line; assay: MTT assay, LN229; assay type: cell-based, human; settings: LN229, 48 h
Procedure: as §2, §1

purified COX-2 protein = molecular target: T1, purified COX-2 protein (Homo sapiens, UniProt P35354); assay: COX-2 inhibition in vitro with purified COX-2 protein; assay type: biochemical
T1 sequence (P35354 18-604): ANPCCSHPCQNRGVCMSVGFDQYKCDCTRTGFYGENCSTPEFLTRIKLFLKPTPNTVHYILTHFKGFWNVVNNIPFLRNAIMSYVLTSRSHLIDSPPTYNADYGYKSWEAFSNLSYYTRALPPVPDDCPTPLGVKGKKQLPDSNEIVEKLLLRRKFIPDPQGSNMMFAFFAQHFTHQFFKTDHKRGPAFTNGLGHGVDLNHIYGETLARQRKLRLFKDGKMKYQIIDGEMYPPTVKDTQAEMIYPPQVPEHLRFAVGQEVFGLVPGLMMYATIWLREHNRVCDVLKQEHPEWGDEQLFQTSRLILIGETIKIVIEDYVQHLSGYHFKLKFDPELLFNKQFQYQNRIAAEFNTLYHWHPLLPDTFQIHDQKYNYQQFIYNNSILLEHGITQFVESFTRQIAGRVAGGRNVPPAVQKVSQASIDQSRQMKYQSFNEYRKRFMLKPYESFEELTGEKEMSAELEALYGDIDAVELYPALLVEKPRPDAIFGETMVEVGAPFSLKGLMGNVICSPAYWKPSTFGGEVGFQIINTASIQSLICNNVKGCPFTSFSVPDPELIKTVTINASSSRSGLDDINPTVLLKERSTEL
Procedure: Bortezomib was obtained from the pharmacy as 3.5 mg Velcade suspended in 3.5 mL saline (Millennium Pharmaceuticals).

[4] = test system: polyubiquitinated proteins in U251 cells; assay: Western blot of polyubiquitinated proteins, U251; assay type: cell-based, human; settings: U251, increasing concentrations, 24 hours
Procedure: Total cell lysates were analyzed by Western blot with specific antibodies to ubiquitin, GRP78, CHOP, and caspase 4. Actin was used as a loading control. […] Note that in the caspase 4 blots several non-specific background bands were observed (consistent with similar observations in the literature); the specific bands were identified with the use of various controls (not shown) and comparison to the literature.
Total cell lysates were prepared and analyzed by Western blot analysis as described earlier (19). Immunohistochemical analysis of protein expression in tumor tissues was performed with the use of the Vectastain avidin-biotin complex method kit (Vector Laboratories) as described previously (32). The primary antibodies were purchased from Cell Signaling Technology or Santa Cruz Biotechnology, Inc. and used according to the manufacturers' recommendations. All immunoblots and stainings were repeated at least once to confirm the results.

U87 glioblastoma tumors = assay: TUNEL assay of xenograft tumor tissue

Row | SMILES | elevation of cytoplasmic calcium levels [1] | IC50 (U251 glioblastoma cells) | detectable effect on cell growth and survival (MTT) (U251 glioblastoma cells; U251, 48 hours, concentrations of up to 100 μmol/L) | IC50 [2] | sensitivity of LN229 compared with the other glioblastoma cell lines [3] | COX-2-inhibitory activity (purified COX-2 protein) | average maximum calcium peak compared with celecoxib ([1]; 100 μmol/L, difference not statistically significant) | cellular activity in MTT assays (U251 glioblastoma cells; U251, 30 and 50 μmol/L, 48 hours) | accumulation of polyubiquitinated proteins [4] | TUNEL staining of tumor tissue (U87 glioblastoma tumors; U87MG xenograft, 1 mg/kg BZM and 7.5 mg/kg DMC individually or in combination, 50 h) | apoptosis in the tumor tissue (U87 glioblastoma tumors; U87 xenograft, short-term drug treatment)
1 | Cc1ccc(-c2cc(C(F)(F)F)nn2-c2ccc(S(N)(=O)=O)cc2)cc1 [celecoxib, 4-[5-(4-methylphenyl)-3-(trifluoromethyl)-1H-pyrazol-1-yl]benzenesulfonamide] | pronounced calcium spike | ~50 µM | reduced the viability of the cell culture | ~50 µM | slightly less sensitive | – | – | – | – | – | –
2 | Cc1ccc(C)c(-c2cc(C(F)(F)F)nn2-c2ccc(S(N)(=O)=O)cc2)c1 [DMC, 4-[5-(2,5-dimethylphenyl)-3-(trifluoromethyl)-1H-pyrazol-1-yl]benzenesulfonamide] | pronounced calcium spike | < 40 µM | – | < 40 µM | slightly less sensitive | lacks the ability to inhibit COX-2; also recorded: lack thereof | somewhat greater | reduced cellular activity | did not cause substantial accumulation of polyubiquitinated proteins | nor did it substantially increase TUNEL staining | significantly increased apoptosis

Source: patent publication US9486461B2, “Methods and compositions for inducing apoptosis by stimulating ER stress” (UNIVERSITY OF SOUTHERN CALIFORNIA, priority 2007, dated 2016)
